From patent publication US9062066B2, “Anti-inflammatory compound having inhibitory activity against multiple tyrosine kinases and pharmaceutical composition containing same” (KOREA INSTITUTE OF SCIENCE AND TECHNOLOGY, priority 2010, dated 2015)
Where two headings read alike, the source gives them in different places.

Columns and labels:
[1] = test system: NO synthesis in J744A.1 macrophage; experiment: inhibition of nitric oxide (NO) synthesis in LPS-activated macrophages (Griess reagent); type: cell-based; conditions: read-out: Inhibition (%) of NO synthesis
DDR2 tyrosine kinase = DDR2 tyrosine kinase (Homo sapiens (Human), UniProt Q16832); experiment: in vitro DDR2 tyrosine kinase inhibition (GST-fused kinase domain); type: biochemical; conditions: 1 uM compound; read-out: % inhibition against DDR2
Sequence of DDR2 tyrosine kinase (Q16832 563-849): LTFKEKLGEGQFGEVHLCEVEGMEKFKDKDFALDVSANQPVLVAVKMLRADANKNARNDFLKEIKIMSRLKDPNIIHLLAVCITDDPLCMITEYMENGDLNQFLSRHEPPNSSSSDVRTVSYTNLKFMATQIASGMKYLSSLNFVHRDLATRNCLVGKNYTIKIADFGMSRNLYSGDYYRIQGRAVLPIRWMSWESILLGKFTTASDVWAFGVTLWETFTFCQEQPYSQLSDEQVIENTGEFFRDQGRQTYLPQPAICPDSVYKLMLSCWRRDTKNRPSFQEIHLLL

c-Src tyrosine kinase = c-Src tyrosine kinase (Homo sapiens (Human), UniProt P12931); experiment: in vitro c-Src tyrosine kinase inhibition (32P-ATP, poly(D4Y)n substrate); type: biochemical; conditions: 1 uM compound; read-out: % inhibition against c-Src
Sequence of c-Src tyrosine kinase (P12931 whole entry, looked up): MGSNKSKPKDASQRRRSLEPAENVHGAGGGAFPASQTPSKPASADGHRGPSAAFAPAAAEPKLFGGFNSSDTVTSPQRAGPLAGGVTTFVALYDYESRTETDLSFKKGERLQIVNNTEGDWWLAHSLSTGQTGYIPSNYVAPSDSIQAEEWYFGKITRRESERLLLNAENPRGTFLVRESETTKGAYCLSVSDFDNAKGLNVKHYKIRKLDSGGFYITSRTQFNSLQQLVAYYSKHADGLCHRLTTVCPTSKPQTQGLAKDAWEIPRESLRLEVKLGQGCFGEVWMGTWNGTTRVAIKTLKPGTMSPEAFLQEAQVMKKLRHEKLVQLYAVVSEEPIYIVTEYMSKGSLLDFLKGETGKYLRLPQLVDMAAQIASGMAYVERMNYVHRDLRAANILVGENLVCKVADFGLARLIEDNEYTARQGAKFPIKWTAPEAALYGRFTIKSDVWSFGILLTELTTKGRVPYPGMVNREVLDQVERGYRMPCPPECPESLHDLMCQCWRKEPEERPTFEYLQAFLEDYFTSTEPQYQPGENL

Lyn tyrosine kinase = Lyn tyrosine kinase (Homo sapiens (Human), UniProt P07948); experiment: in vitro Lyn tyrosine kinase inhibition; type: biochemical; conditions: 1 uM compound; read-out: % inhibition against Lyn
Sequence of Lyn tyrosine kinase (P07948 whole entry, the tested form may be a part): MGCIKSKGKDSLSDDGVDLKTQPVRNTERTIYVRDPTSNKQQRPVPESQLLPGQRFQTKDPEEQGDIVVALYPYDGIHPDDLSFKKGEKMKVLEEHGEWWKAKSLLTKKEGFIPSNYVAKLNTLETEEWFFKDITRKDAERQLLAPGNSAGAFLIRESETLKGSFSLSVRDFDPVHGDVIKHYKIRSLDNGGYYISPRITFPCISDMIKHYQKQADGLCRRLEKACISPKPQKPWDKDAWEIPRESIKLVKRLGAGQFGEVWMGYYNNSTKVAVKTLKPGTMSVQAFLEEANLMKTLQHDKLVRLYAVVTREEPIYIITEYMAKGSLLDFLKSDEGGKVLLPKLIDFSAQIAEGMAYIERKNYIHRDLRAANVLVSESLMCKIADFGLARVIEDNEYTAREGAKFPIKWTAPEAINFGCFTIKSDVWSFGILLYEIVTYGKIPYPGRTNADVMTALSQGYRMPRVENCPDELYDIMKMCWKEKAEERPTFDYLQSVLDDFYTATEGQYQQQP

DDR1 tyrosine kinase = DDR1 tyrosine kinase (Homo sapiens (Human), UniProt Q08345); experiment: in vitro DDR1 tyrosine kinase inhibition (GST-fused kinase domain); type: biochemical; conditions: 1 uM compound; read-out: % inhibition against DDR1
Sequence of DDR1 tyrosine kinase (Q08345 610-905): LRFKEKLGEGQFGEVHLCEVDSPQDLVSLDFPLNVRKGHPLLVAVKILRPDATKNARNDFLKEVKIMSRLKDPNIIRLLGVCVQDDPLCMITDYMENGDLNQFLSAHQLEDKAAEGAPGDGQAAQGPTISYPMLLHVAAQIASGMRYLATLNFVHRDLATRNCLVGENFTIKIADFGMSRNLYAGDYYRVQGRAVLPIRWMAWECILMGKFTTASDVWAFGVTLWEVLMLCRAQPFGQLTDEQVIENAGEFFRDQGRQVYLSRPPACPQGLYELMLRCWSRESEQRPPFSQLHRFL

Hck tyrosine kinase = Hck tyrosine kinase (Homo sapiens (Human), UniProt P08631); experiment: in vitro Hck tyrosine kinase inhibition; type: biochemical; conditions: 1 uM compound; read-out: % inhibition against Hck
Sequence of Hck tyrosine kinase (P08631 whole entry): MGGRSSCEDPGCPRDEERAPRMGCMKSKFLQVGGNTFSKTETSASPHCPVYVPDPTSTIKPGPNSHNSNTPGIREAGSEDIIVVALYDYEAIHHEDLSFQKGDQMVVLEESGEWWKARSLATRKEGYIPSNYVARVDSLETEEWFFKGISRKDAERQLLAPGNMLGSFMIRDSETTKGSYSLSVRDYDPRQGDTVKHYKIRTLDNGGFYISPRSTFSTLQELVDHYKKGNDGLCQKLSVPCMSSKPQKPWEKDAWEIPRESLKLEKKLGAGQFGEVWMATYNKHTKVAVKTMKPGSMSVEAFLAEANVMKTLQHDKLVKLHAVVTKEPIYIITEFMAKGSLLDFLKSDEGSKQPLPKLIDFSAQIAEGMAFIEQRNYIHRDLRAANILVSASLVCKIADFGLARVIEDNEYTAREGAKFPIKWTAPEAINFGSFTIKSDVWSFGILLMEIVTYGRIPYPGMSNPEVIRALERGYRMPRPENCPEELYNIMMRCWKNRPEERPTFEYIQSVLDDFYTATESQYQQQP

Fgr tyrosine kinase = Fgr tyrosine kinase (Homo sapiens (Human), UniProt P09769); experiment: in vitro Fgr tyrosine kinase inhibition; type: biochemical; conditions: 1 uM compound; read-out: % inhibition against Fgr
Sequence of Fgr tyrosine kinase (P09769 whole entry): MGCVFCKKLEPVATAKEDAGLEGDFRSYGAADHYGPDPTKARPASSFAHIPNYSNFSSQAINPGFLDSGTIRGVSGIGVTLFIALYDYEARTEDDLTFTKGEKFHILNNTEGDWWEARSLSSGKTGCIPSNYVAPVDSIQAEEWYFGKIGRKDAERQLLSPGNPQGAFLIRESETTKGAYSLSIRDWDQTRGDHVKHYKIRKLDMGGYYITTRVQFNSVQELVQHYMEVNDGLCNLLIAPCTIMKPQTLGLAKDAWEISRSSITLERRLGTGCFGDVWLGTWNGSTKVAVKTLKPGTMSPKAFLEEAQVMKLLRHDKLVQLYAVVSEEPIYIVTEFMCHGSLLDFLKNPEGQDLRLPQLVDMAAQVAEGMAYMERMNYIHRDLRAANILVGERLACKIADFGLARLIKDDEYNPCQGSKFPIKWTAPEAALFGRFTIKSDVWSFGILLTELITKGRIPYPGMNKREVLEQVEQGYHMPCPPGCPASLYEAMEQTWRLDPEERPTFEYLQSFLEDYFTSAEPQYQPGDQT

| Compound | inhibition at 1 µM (DDR2 tyrosine kinase) | inhibition at 1 µM (c-Src tyrosine kinase) | inhibition at 1 µM (Lyn tyrosine kinase) | inhibition at 1 µM (DDR1 tyrosine kinase) | inhibition at 1 µM (Hck tyrosine kinase) | inhibition at 1 µM (Fgr tyrosine kinase) | inhibition at 10 µM ([1]; 10 μM compound, LPS, 24 hours) | inhibition at 10 µM ([1]; 24 h) |
| --- | --- | --- | --- | --- | --- | --- | --- | --- |
| COc1ccc(-c2cc3ncnc(Nc4cccc(O)c4)c3s2)cc1 [LCB 03-0017, 3-[6-(4-Methoxy-phenyl)-thieno[3,2-d]pyrimidin-4-ylamino]-phenol] | > 70% | > 60% | > 60% | > 70% | > 60% | > 60% | 82% | – |
| Oc1cccc(Nc2ncnc3cc(-c4ccc(CCN5CCCC5)cc4)sc23)c1 [LCB 03-0043] | > 80% | > 30% | > 30% | > 80% | > 30% | > 30% | 66% | – |
| CN1CCN(C(=O)Cc2ccc(-c3cc4ncnc(Nc5cccc(O)c5)c4s3)cc2)CC1 [LCB 03-0047, 2-(4-(4-(3-hydroxyphenylamino)thieno[3,2-d]pyrimidin-6-yl)phenyl)-1-(4-methylpiperazin-1-yl)ethanone] | > 70% | > 30% | > 20% | > 70% | > 30% | > 30% | – | 56% |
| CCOCc1ccc(-c2cc3ncnc(Nc4cccc(O)c4)c3s2)cc1 [LCB 03-0073, 3-(6-(4-(ethoxymethyl)phenyl)thieno[3,2-d]pyrimidin-4-ylamino)phenol] | > 80% | > 30% | > 30% | > 80% | > 30% | > 30% | 85% | – |
| Oc1cccc(Nc2ncnc3cc(-c4cc(CN5CCCCC5)cs4)sc23)c1 [LCB 03-0103, 3-(6-(4-(piperidin-1-ylmethyl)thiophene-2-yl)thieno[3,2-d]pyrimidin-4-ylamino)phenol] | > 70% | > 50% | > 50% | > 70% | > 50% | > 50% | – | – |
| Oc1cccc(Nc2ncnc3cc(-c4cc(CN5CCOCC5)cs4)sc23)c1 [LCB 03-0104, 3-(6-(4-(morpholinomethyl)thiophene-2-yl)thieno[3,2-d]pyrimidin-4-ylamino)phenol] | > 80% | > 50% | > 50% | > 80% | > 50% | > 50% | – | – |

Second part, led by results:

| inhibition at 1 µM (DDR2 tyrosine kinase) | inhibition at 1 µM (c-Src tyrosine kinase) | inhibition at 1 µM (Lyn tyrosine kinase) | inhibition at 1 µM (DDR1 tyrosine kinase) | inhibition at 1 µM (Hck tyrosine kinase) | inhibition at 1 µM (Fgr tyrosine kinase) | Compound | inhibition at 10 µM ([1]; 10 μM compound, LPS, 24 hours) | inhibition at 10 µM ([1]; 24 h) |
| --- | --- | --- | --- | --- | --- | --- | --- | --- |
| > 70% | > 50% | > 50% | > 70% | > 50% | > 50% | Oc1cccc(Nc2ncnc3cc(-c4cc(CN5CCNCC5)cs4)sc23)c1 [LCB 03-0105, 3-(6-(4-(piperazin-1-ylmethyl)thiophene-2-yl)thieno[3,2-d]pyrimidin-4-ylamino)phenol] | – | – |
| > 70% | > 50% | > 50% | > 70% | > 50% | > 50% | Oc1cccc(Nc2ncnc3cc(-c4cc(CN5CCCC5)co4)sc23)c1 [LCB 03-0113, 3-(6-(4-(pyrrolidin-1-ylmethyl)furan-2-yl)thieno[3,2-d]pyrimidin-4-ylamino)phenol] | – | – |
| > 70% | > 50% | > 50% | > 70% | > 50% | > 50% | CN1CCN(Cc2coc(-c3cc4ncnc(Nc5cccc(O)c5)c4s3)c2)CC1 [LCB 03-0114, 3-(6-(4-((4-methylpiperazin-1-yl)methyl)furan-2-yl)thieno[3,2-d]pyrimidin-4-ylamino)phenol] | – | – |
| > 70% | > 50% | > 50% | > 70% | > 50% | > 50% | Oc1cccc(Nc2ncnc3cc(-c4cc(CN5CCCCC5)co4)sc23)c1 [LCB 03-0115, 3-(6-(4-(piperidin-1-ylmethyl)furan-2-yl)thieno[3,2-d]pyrimidin-4-ylamino)phenol] | – | – |
